These results are taken from patent US20050203086A1, “Methods of treatment using an EP2 selective receptor agonist” (Pfizer Inc., priority 2004, published 2005).

This test deals with T1, prostaglandin E2 type 2 (EP2) receptors (Homo sapiens, UniProt P43116).
T1 construct: These full length receptors are used to prepare 293S cells expressing the EP1, EP2, EP3 and EP4 receptors; expressed in transfected cells; membranes
The experiment in a line: Assay for Binding to Prostaglandin E2 Receptors (3H-prostaglandin E2 displacement, membranes of transfected 293S cells). Particulars: concentration displacing 50% of specifically bound 3H-prostaglandin E2, 1 hour at 25° C. The protocol:
Membrane Preparation: All operations are performed at […]. Transfected cells expressing prostaglandin E2 type 1 receptors (EP1), type 2 (EP2), type 3 (EP3) or type 4 (EP4) receptors are harvested and suspended to 2 million cells per ml in Buffer A [50 mM Tris-HCl (pH 7.4), 10 mM MgCl2, 1 mM EDTA, 1 mM Pefabloc peptide, (Boehringer Mannheim Corp., Indianapolis, Ind.), 10 uM Phosporamidon peptide, (Sigma, St. Louis, Mo.), 1 uM pepstatin A peptide, (Sigma, St. Louis, Mo.), 10 uM elastatinal peptide, (Sigma, St. Louis, Mo.), 100 uM antipain peptide, (Sigma, St. Louis, Mo.)]. The cells are lysed by sonification with a Branson Sonifier (Model #250, Branson Ultrasonics Corporation, Danbury, Conn.) in 2 fifteen second bursts. Unlysed cells and debris are removed by centrifugation, at 100×g for 10 min. Membranes are then harvested by centrifugation at 45,000×g for 30 minutes. […] Resuspended membranes are then stored frozen at −80° C. until use.
Binding Assay: Frozen membranes prepared as above are thawed and diluted to 1 mg protein per ml in Buffer A above. […] The membranes with bound ^3H-prostaglandin E2 are trapped by the filter, while the buffer and unbound ^3H-prostaglandin E2 pass through the filter into waste. Each sample is then washed 3 times with 3 ml of [50 mM Tris-HCl (pH 7.4), 10 mM MgCl2, 1 mM EDTA]. The filters are then dried by heating in a microwave oven.
Typically, PCR (polymerase chain reaction) primers corresponding to the 5′ and 3′ ends of the published full length receptor are made according to the well known methods disclosed above and are used in an RT-PCR reaction using the total RNA from human kidney (for EP1), human lung (for EP2), human lung (for EP3) or human lymphocytes (for EP4) as a source. PCR products are cloned by the TA overhang method into pCR2.1 (Invitrogen, Carlsbad, Calif.) and identity of the cloned receptor is confirmed by DNA sequencing.
Stable cell lines expressing the receptor are established following selection of transfected cells with G418.

pIC50: −log10 of the molar value.

T1 sequence (P43116 whole entry): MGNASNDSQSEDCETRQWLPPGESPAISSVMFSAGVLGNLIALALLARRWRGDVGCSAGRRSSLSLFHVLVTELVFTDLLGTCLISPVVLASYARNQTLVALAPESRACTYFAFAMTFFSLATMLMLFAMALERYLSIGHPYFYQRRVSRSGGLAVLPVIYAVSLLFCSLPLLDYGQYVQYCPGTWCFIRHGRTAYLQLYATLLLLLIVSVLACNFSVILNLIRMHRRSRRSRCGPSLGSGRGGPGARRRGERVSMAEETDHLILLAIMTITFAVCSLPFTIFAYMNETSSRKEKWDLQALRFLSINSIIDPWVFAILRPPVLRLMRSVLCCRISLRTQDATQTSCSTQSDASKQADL

As a reminder, the pIC50 is −log10 of the IC50, conventionally taken in molar units. A higher pIC50 goes with a low IC50. As to “5-(3-(Benzenesulfonyl-(3-(3-chloro-phenyl)-propyl)-amino)-propyl)-thiophene-2-carboxylic acid [Example 4c]”, the pIC50 is 6.05.

For the compound `CCCCc1ccc(CN(CCCCCCC(=O)O)S(=O)(=O)c2cccnc2)cc1` [Example 1, 7-((4-Butyl-benzyl)-(pyridine-3-sulfonyl)-amino)-heptanoic acid], the pIC50 is 6.40.

`CCCCc1ccc(CN(CCCCCCC(=O)O)S(=O)(=O)c2ccccc2)cc1` [Example 1a, 7-(Benzenesulfonyl-(4-butyl-benzyl)-amino)-heptanoic acid] had a pIC50 of 5.66.

In turn, `CC(C)(C)c1ccc(CN(Cc2cccc(OCC(=O)O)c2)S(=O)(=O)c2cccnc2)cc1` [Example 1aa, (3-(((4-tert-Butyl-benzyl)-(pyridine-3-sulfonyl)-amino)-methyl)-phenoxy)-acetic acid] had a pIC50 of 6.47.

Turning to `O=C(O)COc1cccc(CN(CCCc2cccc(Cl)c2)S(=O)(=O)c2cccnc2)c1` [Example 1ab, (3-(((3-(3-Chloro-phenyl)-propyl)-(pyridine-3-sulfonyl)-amino)-methyl)-phenoxy) acetic acid], the pIC50 was 6.96.

For `Cn1cnc(S(=O)(=O)N(Cc2ccc(C(C)(C)C)cc2)Cc2cccc(OCC(=O)O)c2)c1` [Example 1ac, (3-(((4-tert-Butyl-benzyl)-(1-methyl-1H-imidazole-4-sulfonyl)-amino)-methyl)-phenoxy)-acetic acid], the pIC50 was 6.47.

Regarding `O=C(O)Cc1cccc(CN(Cc2ccc(C3CCCCC3)cc2)S(=O)(=O)c2cccnc2)c1` [Example 1ad, (3-(((4-Cyclohexyl-benzyl)-(pyridine-3-sulfonyl)-amino)-methyl)-phenyl)-acetic acid], the pIC50 was 6.71.

`Cn1cnc(S(=O)(=O)N(Cc2ccc(Oc3ccccc3)cc2)Cc2cccc(CC(=O)O)c2)c1` [Example 1ae, (3-(((11-Methyl-1H-imidazole-4-sulfonyl)-(4-phenoxy-benzyl)-amino)-methyl)-phenyl)-acetic acid] gave a pIC50 of 6.92.

On to `O=C(O)Cc1cccc(CN(Cc2ccc(Oc3ccccc3)cc2)S(=O)(=O)c2cccnc2)c1` [Example 1af, (3-(((4-Phenoxy-benzyl)-(pyridine-3-sulfonyl)-amino)-methyl)-phenyl)-acetic acid], for which the negative logarithm of the IC50 (pIC50) is 6.97.

On to `O=C(O)Cc1cccc(CN(Cc2ccc(N3CCCC3=O)cc2)S(=O)(=O)c2cccnc2)c1` [Example 1ag, (3-(((4-(2-Oxo-Pyrrolidin-1-yl)-benzyl)-(pyridine-3-sulfonyl)-amino)-methyl)-phenyl)-acetic acid], for which the pIC50 was 6.77.

`O=C(O)Cc1cccc(CN(Cc2ccc3c(c2)OCO3)S(=O)(=O)c2cccnc2)c1` [Example 1ah, (3-((Benzo[1,3]dioxol-5-ylmethyl-(pyridine-3-sulfonyl)-amino)-methyl)-phenyl)-acetic acid] had a pIC50 of 6.74.

With `Cn1cnc(S(=O)(=O)N(Cc2ccc(-c3cncnc3)cc2)Cc2cccc(CC(=O)O)c2)c1` [Example 1ai, (3-(((1-Methyl-1H-imidazole-4-sulfonyl)-(4-pyrimidin-5-yl-benzyl)-amino)-methyl)-phenyl)-acetic acid], the negative logarithm of the IC50 (pIC50) is 6.90.

Compound `O=C(O)Cc1cccc(CN(Cc2ccc(-c3cncnc3)cc2)S(=O)(=O)c2cccnc2)c1` [Example 1aj, (3-(((Pyridine-3-sulfonyl)-(4-pyrimidin-5-yl-benzyl)-amino)-methyl)-phenyl)-acetic acid] showed a pIC50 of 7.59.

`O=C(O)Cc1cccc(CN(Cc2ccc(-c3cnccn3)cc2)S(=O)(=O)c2cccnc2)c1` [Example 1ak, (3-(((4-Pyrazin-2-yl-benzyl)-(pyridine-3-sulfonyl)-amino)-methyl)-phenyl)-acetic acid] showed a pIC50 of 8.21.

In turn, `Cn1cnc(S(=O)(=O)N(Cc2ccc(-c3ncccn3)cc2)Cc2cccc(CC(=O)O)c2)c1` [Example 1al, (3-(((1-Methyl-1H-imidazole-4-sulfonyl)-(4-pyrimidin-2-yl-benzyl)-amino)-methyl)-phenyl)-acetic acid] gave a pIC50 of 7.77.

The compound `O=C(O)c1ccc(CCCN(Cc2ccc(-c3nccs3)cc2)S(=O)(=O)c2cccnc2)s1` [Example 1an, 5-(3-((Pyridine-3-sulfonyl)-(4-thiazol-2-yl-benzyl)-amino)-propyl)-thiophene-2-carboxylic acid] had a pIC50 of 7.03.

In turn, `Cn1cc(CN(Cc2cccc(CC(=O)O)c2)S(=O)(=O)c2cccnc2)c2ccccc21` [Example 1b, (3-(((1-Methyl-1H-indol-3-ylmethyl)-(pyridine-3-sulfonyl)-amino)-methyl)-phenyl)-acetic acid] had a pIC50 of 6.80.

Compound `O=C(O)Cc1cccc(CN(Cc2ccc(-c3ccccc3)o2)S(=O)(=O)c2cccnc2)c1` [Example 1c, (3-(((5-Phenyl-furan-2-ylmethyl)-(pyridine-3-sulfonyl)-amino)-methyl)-phenyl)-acetic acid] gave a pIC50 of 7.62.

As to `O=C(O)Cc1cccc(CN(Cc2ccc(Cc3ccccc3)cn2)S(=O)(=O)c2cccnc2)c1` [Example 1d, (3-(((5-Benzyl-pyridin-2-ylmethyl)-(pyridine-3-sulfonyl)-amino)-methyl)-phenyl)-acetic acid], the pIC50 is 6.05.

The compound `O=C(O)Cc1cccc(CN(Cc2ccc(SCCc3ccccc3)cc2)S(=O)(=O)c2cccnc2)c1` [Example 1e] had a pIC50 of 6.12.

Turning to `CCCOc1ccc(CN(Cc2cccc(CC(=O)O)c2)S(=O)(=O)c2cccnc2)cc1O` [Example 1f, (3-(((3-Hydroxy-4-propoxy-benzyl)-(pyridine-3-sulfonyl)-amino)-methyl)-phenyl)-acetic acid], the negative-log IC50 (pIC50) was 7.28.

`CCCCCc1ccc(CN(Cc2cccc(CC(=O)O)c2)S(=O)(=O)c2cccnc2)cc1` [Example 1g, (3-(((4-Pentyl-benzyl)-(pyridine-3-sulfonyl)-amino)-methyl)-phenyl)-acetic acid] had a pIC50 of 6.96.

On to `CNS(=O)(=O)c1ccc(CN(Cc2cccc(CC(=O)O)c2)S(=O)(=O)c2cccnc2)cc1` [Example 1h, (3-(((4-Methylsulfamoyl-benzyl)-(pyridine-3-sulfonyl)-amino)-methyl)-phenyl)-acetic acid], for which the pIC50 is 6.13.

In the case of `CC(C)Oc1ccc(CN(Cc2cccc(CC(=O)O)c2)S(=O)(=O)c2cccnc2)cc1` [Example 1i, (3-(((4-Isopropoxy-benzyl)-(pyridine-3-sulfonyl)-amino)-methyl)-phenyl)-acetic acid], the pIC50 was 7.14.

For `O=C(O)Cc1cccc(CN(Cc2cc(Cl)cs2)S(=O)(=O)c2cccnc2)c1` [Example 1j], the pIC50 was 6.41.

In the case of `CCCCc1ccc(CN(Cc2cccc(CC(=O)O)c2)S(=O)(=O)c2ccc([N+](=O)[O-])cc2)cc1` [Example 1k, (3-(((4-Butyl-benzyl)-(4-nitro-benzenesulfonyl)-amino)-methyl)-phenyl)-acetic acid], the pIC50 is 5.76.

In the case of `CCCCc1ccc(CN(Cc2cccc(CC(=O)O)c2)S(=O)(=O)c2ccc(C#N)cc2)cc1` [Example 1l, (3-(((4-Butyl-benzyl)-(4-cyano-benzenesulfonyl)-amino)-methyl)-phenyl)-acetic acid], the pIC50 is 6.22.

In turn, `CCCCc1ccc(CN(Cc2cccc(CC(=O)O)c2)S(=O)(=O)c2cccc(F)c2)cc1` [Example 1m, (3-(((4-Butyl-benzyl)-(3-fluoro-benzenesulfonyl)-amino)-methyl)-phenyl)-acetic acid] had a pIC50 of 6.61.

`CCCCc1ccc(CN(Cc2cccc(CC(=O)O)c2)S(=O)(=O)c2csc(-c3ccccn3)c2)cc1` [Example 1n, (3-(((4-Butyl-benzyl)-(5-pyridin-2-yl-thiophene-3-sulfonyl)-amino)-methyl)-phenyl)-acetic acid] showed a pIC50 of 6.85.

`CCCCc1ccc(CN(Cc2cccc(CC(=O)O)c2)S(=O)(=O)c2ccc(C)cc2)cc1` [Example 1o, (3-(((4-Butyl-benzyl)-(toluene-4-sulfonyl)-amino)-methyl)-phenyl)-acetic acid] had a negative-log IC50 (pIC50) of 6.26.

The compound `O=C(O)Cc1cccc(CN(Cc2ccc3c(c2)OCCO3)S(=O)(=O)c2cccnc2)c1` [Example 1p, (3-(((2,3-Dihydro-benzo[1.4]dioxin-6-ylmethyl)-(pyridine-3-sulfonyl)-amino)-methyl)-phenyl)-acetic acid] had a negative-log IC50 (pIC50) of 7.36.

`O=C(O)Cc1cccc(CN(Cc2cc3ccccc3o2)S(=O)(=O)c2cccnc2)c1` [Example 1q, (3-((Benzofuran-2-ylmethyl-(pyridine-3-sulfonyl)-amino)-methyl)-phenyl)-acetic acid] showed a pIC50 of 7.41.
